Experimental data: patent US8163793B2, “Proline derivatives” (Hoffman-La Roche Inc., priority 2009, dated 2012)

Tests used:
[1] = target: Cat L (UniProt P07711); test: Cathepsin enzyme inhibition assay (fluorogenic peptide substrate Z-Val-Val-Arg-AMC), Cathepsin L; format: biochemical, human and mouse; conditions: enzyme 1 nM, substrate 20 μM, pH 6.5; read-out: CatL IC50
How it was run: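 Cathepsin L at 1 nM was mixed with compound, then started with 20 μM Z-Val-Val-Arg-AMC in pH 6.5 potassium phosphate with EDTA, Triton X-100 and 5 mM DTT. AMC fluorescence (ex 360/em 465 nm) was followed over 20 min. IC50 is given in μM.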

[2] = target: Cathepsin S (UniProt P25774); test: Cathepsin enzyme inhibition assay (fluorogenic peptide substrate Z-Val-Val-Arg-AMC), Cathepsin S; format: biochemical, human and mouse; conditions: enzyme 1 nM, substrate 20 μM, pH 6.5; read-out: CatS IC50
How it was run: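 Human or mouse cathepsin S (1 nM) was run in 100 mM potassium phosphate pH 6.5 with 5 mM EDTA, 0.001% Triton X-100 and 5 mM DTT. The rise in AMC fluorescence from cleavage was measured, and IC50 values were calculated by standard methods and expressed in μM.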

SMILES | IC50 [1] [nM] | IC50 [2] [nM]
COCCOc1ccc(S(=O)(=O)[C@@H]2CC(C(=O)NC3(C#N)CC3)N(C(=O)C3(c4ccc(Cl)nc4)CC3)C2)c(Cl)c1 (stereo partly drawn) [Example 378, (R)-4-[2-Chloro-4-(2-methoxy-ethoxy)-benzenesulfonyl]-1-[1-(6-chloro-pyridin-3-yl)-cyclopropanecarbonyl]-pyrrolidine-2-carboxylic acid (1-cyano-cyclopropyl)-amide] | 200 | 0.1
Cc1cc(N2C[C@H](S(=O)(=O)c3ccccc3Cl)C[C@H]2C(=O)NC2(C#N)CC2)n(Cc2ccccc2)n1 [Example 379, (2S,4R)-1-(2-Benzyl-5-methyl-2H-pyrazol-3-yl)-4-(2-chloro-benzenesulfonyl)-pyrrolidine-2-carboxylic acid (1-cyano-cyclopropyl)-amide] | 2710 | 1.75
N#CC1(NC(=O)[C@@H]2C[C@@H](S(=O)(=O)c3ccc(-n4cccn4)cc3Cl)CN2C(=O)C2(c3ccc(Cl)nc3)CC2)CC1 [Example 380, (2S,4R)-4-(2-Chloro-4-pyrazol-1-yl-benzenesulfonyl)-1-[1-(6-chloro-pyridin-3-yl)-cyclopropanecarbonyl]-pyrrolidine-2-carboxylic acid (1-cyano-cyclopropyl)-amide] | 130 | 0.05
C[C@H](Oc1ccc(S(=O)(=O)[C@@H]2C[C@@H](C(=O)NC3(C#N)CC3)N(C(=O)C3(c4ccc(Cl)nc4)CC3)C2)c(Cl)c1)C(F)(F)F [Example 381, (2S,4R)-1-[1-(6-Chloro-pyridin-3-yl)-cyclopropanecarbonyl]-4-[2-chloro-4-((S)-2,2,2-trifluoro-1-methyl-ethoxy)-benzenesulfonyl]-pyrrolidine-2-carboxylic acid (1-cyano-cyclopropyl)-amide] | 102 | 0.295
N#CC1(NC(=O)[C@@H]2C[C@@H](S(=O)(=O)c3ccc(-n4ccnc4)cc3Cl)CN2C(=O)C2(c3ccc(Cl)nc3)CC2)CC1 [Example 382, (2S,4R)-4-(2-Chloro-4-imidazol-1-yl-benzenesulfonyl)-1-[1-(6-chloro-pyridin-3-yl)-cyclopropanecarbonyl]-pyrrolidine-2-carboxylic acid (1-cyano-cyclopropyl)-amide] | 68 | 0.04
N#CC1CCN2C[C@H](S(=O)(=O)c3ccc(F)cc3Cl)C[C@@]12C(=O)NC1(C#N)CC1 (stereo partly drawn) [Example 383, (6R,7aS)-6-(2-Chloro-4-fluoro-benzenesulfonyl)-1-cyano-tetrahydro-pyrrolizine-7a-carboxylic Acid (1-cyano-cyclopropyl)-amide] | 20000 | 14
N#CC1(NC(=O)[C@@H]2C[C@@H](S(=O)(=O)c3ccc(OCC(F)(F)F)cc3Cl)CN2C(=O)C2(c3ccc4c(c3)OCO4)CC2)CC1 [Example 384, (2S,4R)-1-(1-Benzo[1,3]dioxol-5-yl-cyclopropanecarbonyl)-4-[2-chloro-4-(2,2,2-trifluoro-ethoxy)-benzenesulfonyl]-pyrrolidine-2-carboxylic acid (1-cyano-cyclopropyl)-amide] | 100 | 0.05
Cc1cc(N2C[C@H](S(=O)(=O)c3ccc(F)cc3Cl)C[C@H]2C(=O)NC2(C#N)CC2)n(C2CCC2)n1 [Example 385, (2S,4R)-4-(2-Chloro-4-fluoro-benzenesulfonyl)-1-(2-cyclobutyl-5-methyl-2H-pyrazol-3-yl)-pyrrolidine-2-carboxylic acid (1-cyano-cyclopropyl)-amide] | 6460 | 0.54
Cn1nc(C(C)(C)C)cc1C(=O)N1C[C@H](S(=O)(=O)c2ccc(OCC(F)(F)F)cc2Cl)C[C@H]1C(=O)NC1(C#N)CC1 [Example 386, (2S,4R)-1-(5-tert-Butyl-2-methyl-2H-pyrazole-3-carbonyl)-4-[2-chloro-4-(2,2,2-trifluoro-ethoxy)-benzenesulfonyl]-pyrrolidine-2-carboxylic acid (1-cyano-cyclopropyl)-amide] | 4030 | 1.75
COc1ccc(S(=O)(=O)[C@@H]2C[C@@H](C(=O)NC3(C#N)CC3)N(C(=O)OC(C)(C)C)C2)c(Cl)c1 [Example 387, (2S,4R)-4-(2-Chloro-4-methoxy-benzenesulfonyl)-2-(1-cyano-cyclopropylcarbamoyl)-pyrrolidine-1-carboxylic acid tert-butyl ester] | 52500 | 6.7
Cc1cc(N2C[C@H](S(=O)(=O)c3ccc(F)cc3C(F)(F)F)C[C@H]2C(=O)NC2(C#N)CC2)n(C2CCC2)n1 [Example 388, (2S,4R)-1-(2-Cyclobutyl-5-methyl-2H-pyrazol-3-yl)-4-(4-fluoro-2-trifluoromethyl-benzenesulfonyl)-pyrrolidine-2-carboxylic acid (1-cyano-cyclopropyl)-amide] | 35600 | 0.48
Cc1cc(N2C[C@H](S(=O)(=O)c3ccc(N4CCN(C)CC4)cc3C(F)(F)F)C[C@H]2C(=O)NC2(C#N)CC2)n(C2CCC2)n1 [Example 389, (2S,4R)-1-(2-Cyclobutyl-5-methyl-2H-pyrazol-3-yl)-4-[4-(4-methyl-piperazin-1-yl)-2-trifluoromethyl-benzenesulfonyl]-pyrrolidine-2-carboxylic acid (1-cyano-cyclopropyl)-amide] | 8060 | 0.2
N#CC1(NC(=O)[C@@H]2C[C@@H](S(=O)(=O)c3ccc(OCC(F)(F)F)cc3Cl)CN2C(=O)C2(c3cccc4ccccc34)OCCO2)CC1 [Example 390, (2S,4R)-4-[2-Chloro-4-(2,2,2-trifluoro-ethoxy)-benzenesulfonyl]-1-(2-naphthalen-1-yl-[1,3]dioxolane-2-carbonyl)-pyrrolidine-2-carboxylic acid (1-cyano-cyclopropyl)-amide] | 120 | 0.83
Cc1cc(N2C[C@H](S(=O)(=O)c3ccc(OCC(F)(F)F)cc3C(F)(F)F)C[C@H]2C(=O)NC2(C#N)CC2)n(C2CCC2)n1 [Example 391, (2S,4R)-1-(2-Cyclobutyl-5-methyl-2H-pyrazol-3-yl)-4-[4-(2,2,2-trifluoro-ethoxy)-2-trifluoromethyl-benzenesulfonyl]-pyrrolidine-2-carboxylic acid (1-cyano-cyclopropyl)-amide] | 16700 | 0.22
Cc1cc(N2C[C@H](S(=O)(=O)c3ccc(OCC(F)(F)F)cc3C(F)(F)F)C[C@@H]2C(=O)NC2(C#N)CC2)n(C2CCC2)n1 [Example 392, (2R,4R)-1-(2-Cyclobutyl-5-methyl-2H-pyrazol-3-yl)-4-[4-(2,2,2-trifluoro-ethoxy)-2-trifluoromethyl-benzenesulfonyl]-pyrrolidine-2-carboxylic acid (1-cyano-cyclopropyl)-amide] | ≥ 25000 | 0.91
Cn1nc(N2C[C@H](S(=O)(=O)c3ccccc3C(F)(F)F)C[C@H]2C(=O)NC2(C#N)CC2)cc1C1CCOCC1 [Example 393, (2S,4R)-1-[1-Methyl-5-(tetrahydro-pyran-4-yl)-1H-pyrazol-3-yl]-4-(2-trifluoromethyl-benzenesulfonyl)-pyrrolidine-2-carboxylic acid (1-cyano-cyclopropyl)-amide] | ≥ 25000 | 3.75
N#CC1(NC(=O)[C@@H]2C[C@@H](S(=O)(=O)c3ccccc3C(F)(F)F)CN2c2ccc(F)c(Cl)c2)CC1 [Example 394, (2S,4R)-1-(3-Chloro-4-fluoro-phenyl)-4-(2-trifluoromethyl-benzenesulfonyl)-pyrrolidine-2-carboxylic acid (1-cyano-cyclopropyl)-amide] | ≥ 25000 | 2.95
N#CC1(NC(=O)[C@H]2C[C@H](S(=O)(=O)c3ccccc3C(F)(F)F)CN2c2ccc(F)c(Cl)c2)CC1 [Example 395, (2R,4S)-1-(3-Chloro-4-fluoro-phenyl)-4-(2-trifluoromethyl-benzenesulfonyl)-pyrrolidine-2-carboxylic acid (1-cyano-cyclopropyl)-amide] | ≥ 25000 | 155
Cc1cc(N2C[C@H](S(=O)(=O)c3ccc(F)cc3C(F)(F)F)C[C@H]2C(=O)NC2(C#N)CC2)n(C2CCOCC2)n1 [Example 396, (2S,4R)-4-(4-Fluoro-2-trifluoromethyl-benzenesulfonyl)-1-[5-methyl-2-(tetrahydro-pyran-4-yl)-2H-pyrazol-3-yl]-pyrrolidine-2-carboxylic acid (1-cyano-cyclopropyl)-amide] | 57500 | 1.65
N#CC1(NC(=O)[C@@H]2C[C@@H](S(=O)(=O)c3ccccc3C(F)(F)F)CN2c2cc(C3CCOCC3)nn2C2CCC2)CC1 [Example 397, (2S,4R)-1-[2-Cyclobutyl-5-(tetrahydro-pyran-4-yl)-2H-pyrazol-3-yl]-4-(2-trifluoromethyl-benzenesulfonyl)-pyrrolidine-2-carboxylic acid (1-cyano-cyclopropyl)-amide] | 7200 | 0.435
N#CC1(NC(=O)[C@@H]2C[C@@H](S(=O)(=O)c3ccccc3C(F)(F)F)CN2c2cc(C3CC3)nn2C2CCC2)CC1 [Example 398, (2S,4R)-1-(2-Cyclobutyl-5-cyclopropyl-2H-pyrazol-3-yl)-4-(2-trifluoromethyl-benzenesulfonyl)-pyrrolidine-2-carboxylic acid (1-cyano-cyclopropyl)-amide] | 18800 | 0.555
N#CC1(NC(=O)[C@@H]2C[C@@H](S(=O)(=O)c3ccccc3Cl)CN2c2nnc(C(F)(F)F)s2)CC1 [Example 399] | > 25000 | 0.98
N#CC1(NC(=O)[C@@H]2C[C@@H](S(=O)(=O)c3ccccc3C(F)(F)F)CN2c2cc(C3CC3)n[nH]2)CC1 [Example 400, (2S,4R)-1-(5-Cyclopropyl-2H-pyrazol-3-yl)-4-(2-trifluoromethyl-benzenesulfonyl)-pyrrolidine-2-carboxylic acid (1-cyano-cyclopropyl)-amide] | ≥ 25000 | 3.3
